From patent publication US10544144B2, “Fused pyrimidine piperidine cyclic derivative, preparation process and use thereof” (SHANGHAI ALLIST PHARMACEUTICAL AND MEDICAL TECHNOLOGY …, priority 2016, dated 2020) come the findings set out here.

Read-outs that look alike come from different tables or passages of the source.

In test [1] the test system is Human Acute Myelogenous Leukemia Cell KG-1α (FGFR1 Insertion Mutation). The test can be described thus: MTT proliferation inhibition, KG-1α cells. It is filed as cell-based. The note with it: 72 hours drug exposure. The method, then:
(§1) The pharmacodynamic action of the compound of the present invention in terms of inhibiting the proliferation of cancer cells may be determined by conventional methods. One preferable evaluation method is MTT (Thiazolyl Blue) cell activity assay, in which the change in optical absorption value generated after the drug has acted on the cancer cells is measured, and the inhibition ratio of a drug against the proliferation of cancer cells is calculated. Inhibition ratio (%)=[(blank control OD−inhibitor OD)/blank control OD]×100%
(§2) Blank control OD: the OD value of the well of normally grew cells without the action of a drug.
(§3) Inhibitor OD: the OD value of the well of cells with the action of the added compounds to be screened.
(§4) The median inhibitory concentration (IC50) value is obtained by the software GraphPad Prism 5.0 by the 4-parameter logistic curve fit calculation. Each experiment is repeated three times, and the average IC50 value for three experiments is used as the final index for the inhibitory ability.
(§5) Proliferation Inhibition Effect on Human Acute Myelogenous Leukemia Cell KG-1α (FGFR1 Insertion Mutation), Human Gastric Cancer Cell KATO-3 (FGFR2 Amplification), Human Multiple Myeloma Cell KMS-11 (FGFR3 Y373C Mutation)
(§6) Cells in the logarithmic phase were inoculated to 96-well culture plates (cell density: 3000/well for KATO-3, 9000/well for KG-1α, 3000/well for KMS-11, cell suspension: 180 μl/well), and cultured at 37° C. under 5% CO2 for 24 hours. After the culturing, the cells adhered to the well walls. Each of compounds was dissolved in DMSO in advance to formulate a 10 mM stock solution. Upon testing, the stock solution was diluted with complete medium to 10 times the target concentration in another 96-cell plate. And then the compound was added at 20 μl/cell in the 96-well plate in which the cells were inoculated, i.e. the target concentration could be reached. The well for each concentration was triplicated, and the blank control was established. Cells continued to be cultured at 37° C. under 5% CO2 for 72 hours. After the drug acted for 72 hours, 20 μl of Thiazolyl Blue, i.e., MTT was added to each of wells. MTT was dissolved in a phosphate buffer solution free of Ca and Mg ions (D-PBSA) to formulate a 0.5% stock solution in advance. The stock solution was filtered and sterilized. Cells continued to be cultured at 37° C. under 5% CO2 for 4 hours. After 4 hours from the addition of MTT, 100 μl of 14% dimethylformamide-sodium dodecyl sulfate (DMF-SDS) was added to and dissolved in each of wells. Cells were cultured at 37° C. for 3-4 hours, and detected for the light density value (OD) at a wavelength of 570 nm. The inhibition rate was calculated based on the collected data.

Test [2] deals with Human Gastric Cancer Cell KATO-3 (FGFR2 Amplification). The test can be described thus: MTT proliferation inhibition, KATO-3 cells. It is filed as cell-based.
Text: The pharmacodynamic action of the compound of the present invention in terms of inhibiting the proliferation of cancer cells may be determined by conventional methods. […] Inhibition ratio (%)=[(blank control OD−inhibitor OD)/blank control OD]×100%
as §2, §3, §4, §5, §6

Test [3] has as its system subcutaneously transplanted tumors of human bladder cancer RT112/84. The test can be described thus: Growth of subcutaneously transplanted tumors in RT112/84-bearing nude mice. It is filed as in vivo, BALB/c nude mice. As to conditions: p.o., 14 days, I-5 15 or 25 mg/kg QD, I-13 50 mg/kg BID, BGJ398 15 mg/kg QD, FIG. 1. The text has this:
The pharmacodynamic action of the compound of the present invention in terms of inhibiting the growth of transplantation tumor in animal may be assayed by conventional methods. One preferable evaluation method involves the inhibitory effect on the growth of subcutaneously transplantation tumor of human bladder cancer RT112/84-bearing nude mice. The experimental method is as follows: 5×10^6 human bladder cancer RT112/84 cells are inoculated to nude mice subcutaneously at the right side of the back thereof, and each mouse is inoculated with 0.1 ml. After the tumors grow to 100-150 mm^3 on average, the animals are divided into groups randomly according to the tumor size and the animal weight. […] During the entire experimental process, the animal weight and the tumor size are measured twice per week, so as to observe whether or not the toxic reaction occurs.
The tumor volume is calculated as follows: Tumor volume (mm^3)=0.5×(Tumor major diameter×Tumor minor diameter^2) Body weight change rate (%)=measured body weight/body weight before administration×100%. […]
Cell cultivation: RT112/84 cells were placed in a MEM medium containing 10% fetal bovine serum (FBS) and 1% non-essential amino acid (NEAA), and cultivated in a temperature-constant incubator containing 5% CO2 at 37° C. The cells in exponential growth phase were collected and counted for inoculation. […]

The test system of test [4] is Human Multiple Myeloma Cell KMS-11 (FGFR3 Y373C Mutation). The test can be described thus: MTT proliferation inhibition, KMS-11 cells. In kind it is cell-based. As to conditions: 72 hours drug exposure. Here is the method:
as §1, §2, §3
The median inhibitory concentration (IC50) value is obtained by the software GraphPad Prism 5.0 by the 4-parameter logistic curve fit calculation. […]
Cells in the logarithmic phase were inoculated to 96-well culture plates (cell density: 3000/well for KATO-3, 9000/well for KG-1α, 3000/well for KMS-11, cell suspension: 180 μl/well), and cultured at 37° C. under 5% CO2 for 24 hours. […] Cells were cultured at 37° C. for 3-4 hours, and detected for the light density value (OD) at a wavelength of 570 nm. The inhibition rate was calculated based on the collected data.

[5] abbreviates: KATO3, MTT, 72 hours drug exposure, KATO-3 cells, read-out: KATo-3 (FGFR2 amplification) IC50.
[6] abbreviates: KATO3, 72 h, read-out: KATo-3 (FGFR2 amplification) IC50 (nM).

By IC50 is commonly meant the concentration at which inhibition is half-maximal. In the case of `CCN1CCN(c2ccc(Nc3ncc4c(n3)CCN(c3c(Cl)c(OC)cc(OC)c3Cl)C4)cc2)CC1` [Compound I-1, 6-(2,6-dichloro-3,5-dimethoxyphenyl)-N-(4-(4-ethylpiperazin-1-yl)phenyl)-5,6,7,8-tetrahydropyrido[4,3-d]pyrimidin-2-amine], the IC50 in test [1] (Homo sapiens) was 5 nM; in test [2] (setting [5]) it was 12 nM.

Turning to `COc1cc(OC)c(Cl)c(N2CCc3nc(Nc4ccc(N5CCN(CC(F)(F)F)CC5)cc4)ncc3C2)c1Cl` [Compound I-2, 6-(2,6-dichloro-3,5-dimethoxyphenyl)-N-(4-(4-(2,2,2-trifluoroethyl)piperazin-1-yl)phenyl)-5,6,7,8-tetrahydropyrido[4,3-d]pyrimidin-2-amine], the IC50 in test [1] (Homo sapiens) turned out to be 7 nM; in test [2] (setting [6]), 45 nM.

In the case of `COc1cc(OC)c(Cl)c(N2CCc3nc(Nc4ccc(N5CCN(CCO)CC5)cc4)ncc3C2)c1Cl` [Compound I-3, 2-(4-(4-(6-(2,6-dichloro-3,5-dimethoxyphenyl)-5,6,7,8-tetrahydropyrido[4,3-d]pyrimidin-2-ylamino)phenyl)piperazin-1-yl)ethanol], the IC50 in test [1] (Homo sapiens) was determined as 1 nM; in test [2] (setting [6]), 8 nM.

As for `COc1cc(OC)c(Cl)c(N2CCc3nc(Nc4ccc(N5CCN(CCN(C)C)CC5)cc4)ncc3C2)c1Cl` [Compound I-4, 6-(2,6-dichloro-3,5-dimethoxyphenyl)-N-(4-(4-(2-(dimethylamino)ethyl)piperazin-1-yl)phenyl)-5,6,7,8-tetrahydropyrido[4,3-d]pyrimidin-2-amine], the IC50 in test [1] (Homo sapiens) was found to be 2 nM; in test [2] (setting [6]), 30 nM.

Take `COc1cc(OC)c(Cl)c(N2CCc3nc(Nc4ccc(N5CCC(N(C)C)CC5)cc4)ncc3C2)c1Cl` [Compound I-5, 6-(2,6-dichloro-3,5-dimethoxyphenyl)-N-(4-(4-(dimethylamino)piperidin-1-yl)phenyl)-5,6,7,8-tetrahydropyrido[4,3-d]pyrimidin-2-amine]: the IC50 was 2 nM in test [1] (Homo sapiens) and 4 nM in test [2] (setting [6]). For the same molecule, the “inhibition effect on the growth of subcutaneously transplanted tumors (tumor volume)” value in test [3] is reported as “better inhibition effect than BGJ398”.

On to `COc1cc(OC)c(Cl)c(N2CCc3nc(Nc4ccc(N5CCN(C6CC6)CC5)cc4)ncc3C2)c1Cl` [Compound I-6, 6-(2,6-dichloro-3,5-dimethoxyphenyl)-N-(4-(4-cyclopropylpiperazin-1-yl)phenyl)-5,6,7,8-tetrahydropyrido[4,3-d]pyrimidin-2-amine], for which the values for the IC50 in test [1] (Homo sapiens) and in test [2] (setting [6]) were 3 nM and 11 nM, respectively.

As for `CCN1CCN(c2ccc(Nc3ncc4c(n3)CCN(c3c(Cl)c(OC)cc(OC)c3Cl)C4)cc2)C(=O)C1` [Compound I-7], the IC50 came out at 18 nM in test [1] (Homo sapiens) and 6 nM in test [2] (setting [5]).

As for `CCN1CCN(c2ccc(Nc3ncc4c(n3)CCN(c3c(Cl)c(OC)cc(OC)c3Cl)C4)cn2)CC1` [Compound I-8, 6-(2,6-dichloro-3,5-dimethoxyphenyl)-N-(6-(4-ethylpiperazin-1-yl)pyridin-3-yl)-5,6,7,8-tetrahydropyrido[4,3-d]pyrimidin-2-amine], the IC50 was found to be 5 nM in test [1] (Homo sapiens) and 4 nM in test [2] (setting [5]).

With `COc1cc(OC)c(Cl)c(N2CCc3nc(Nc4ccc(N5CCC(N(C)C)CC5)nc4)ncc3C2)c1Cl` [Compound I-9, 6-(2,6-dichloro-3,5-dimethoxyphenyl)-N-(6-(4-(dimethylamino)piperidin-1-yl)pyridin-3-yl)-5,6,7,8-tetrahydropyrido[4,3-d]pyrimidin-2-amine], the IC50 in test [1] (Homo sapiens) came out at 12 nM; in test [4] (Homo sapiens), 200 nM; in test [2] (setting [5]), 21 nM.

With `CCN1CCN(c2ccc(Nc3ncc4c(n3)CCN(c3c(Cl)c(OC)cc(OC)c3Cl)C4)cc2OC)CC1` [Compound I-10, 6-(2,6-dichloro-3,5-dimethoxyphenyl)-N-(4-(4-ethylpiperazin-1-yl)-3-methoxyphenyl)-5,6,7,8-tetrahydropyrido[4,3-d]pyrimidin-2-amine], the values for the IC50 in test [1] (Homo sapiens) and in test [2] (setting [5]) were 24 nM and 7 nM, respectively.

Consider `CCN1CCN(c2ccc(Nc3ncc4c(n3)CCN(c3cc(C(=O)NC)cc(OC)c3Cl)C4)cn2)CC1` [Compound I-11, 4-chloro-3-(2-(6-(4-ethylpiperazin-1-yl)pyridin-3-ylamino)-7,8dihydropyrido[4,3-d]pyrimidin-6(5H)-yl)-5-methoxy-N-methylbenzamide], for which the IC50 worked out at 8 nM in test [1] (Homo sapiens) and 4 nM in test [2] (setting [5]).

Take `CNC(=O)c1cc(OC)c(Cl)c(N2CCc3nc(Nc4ccc(N5CCC(N(C)C)CC5)cc4)ncc3C2)c1` [Compound I-13]: the IC50 in test [1] (Homo sapiens) is 6 nM; in test [2] (setting [5]), 3 nM.

For the molecule `COc1cc(OC)c(Cl)c(N2CCc3nc(Nc4ccc(N5CCN(CCO)CC5)nc4)ncc3C2)c1Cl` [Compound I-14, 2-(4-(5-(6-(2,6-dichloro-3,5-dimethoxyphenyl)-5,6,7,8-tetrahydropyrido[4,3-d]pyrimidin-2-ylamino)pyridin-2-yl)piperazin-1-yl)ethanol], the figures for the IC50 in test [1] (Homo sapiens) and in test [2] (setting [5]) were 15 nM and 23 nM, respectively.

Turning to `COc1cc(OC)c(Cl)c(N2CCc3nc(Nc4ccc(N5CCC(N(C)C)CC5)cc4)ncc3C2)c1F` [Compound I-15, 6-(2-fluoro-6-chloro-3,5-dimethoxyphenyl)-N-(4-(4-(dimethylamino)piperidin-1-yl)phenyl)-5,6,7,8-tetrahydropyrido[4,3-d]pyrimidin-2-amine], the IC50 is 2 nM in test [1] (Homo sapiens) and 3 nM in test [2] (setting [5]).

As to AZD4547 [reference compound], the figures for the IC50 in test [1] and in test [4] were 7 nM and 200 nM, respectively.
